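48-hour exposure; five concentrations; linearly interpolated endpoints. At the GI50, growth is halved. The concentration for full growth arrest is given as TGI.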
Columns and labels:
Assay in all cases: growth of human tumour cells (NCI), 48 h
[1] = system: 786-0 renal
[2] = system: A498 renal
[3] = system: A549 NSCLC
[4] = system: ACHN renal
[5] = system: BT-549 breast
[6] = system: CAKI-1 renal
[7] = system: CCRF-CEM leukemia
[8] = system: COLO 205 colon
[9] = system: DU-145 prostate
[10] = system: EKVX NSCLC
[11] = system: HCC-2998 colon
[12] = system: HCT-116 colon
[13] = system: HCT-15 colon
[14] = system: HL-60(TB) leukemia
[15] = system: HOP-62 NSCLC
[16] = system: HOP-92 NSCLC
[17] = system: HS 578T breast
[18] = system: HT29 colon
[19] = system: IGROV1 ovarian
[20] = system: K-562 leukemia
[21] = system: KM12 colon
[22] = system: LOX IMVI melanoma
[23] = system: M14 melanoma
[24] = system: MALME-3M melanoma
[25] = system: MCF7 breast
[26] = system: MDA-MB-231 breast
[27] = system: MDA-MB-435
[28] = system: MOLT-4 leukemia
[29] = system: NCI-H226 lung
[30] = system: NCI-H23 lung
[31] = system: NCI-H460 lung
[32] = system: NCI-H522 lung
[33] = system: NCI/ADR-RES ovarian
[34] = system: OVCAR-3 ovarian
[35] = system: OVCAR-4 ovarian
[36] = system: OVCAR-5 ovarian
[37] = system: OVCAR-8 ovarian
[38] = system: PC-3 prostate
[39] = system: RPMI-8226 leukemia
[40] = system: RXF 393 renal
[41] = system: SF-268 CNS
[42] = system: SF-295 CNS
[43] = system: SF-539 CNS
[44] = system: SK-MEL-2 melanoma
[45] = system: SK-MEL-28 melanoma
[46] = system: SK-MEL-5 melanoma
[47] = system: SK-OV-3 ovarian
[48] = system: SN12C renal
[49] = system: SNB-19 CNS
[50] = system: SNB-75 CNS
[51] = system: SR leukemia
[52] = system: SW-620 colon
[53] = system: T-47D breast
[54] = system: TK-10 renal
[55] = system: U251 CNS
[56] = system: UACC-257 melanoma
[57] = system: UACC-62 melanoma
[58] = system: UO-31 renal

With `N#C/C(=C\c1cn(Cc2ccccc2)c2ccccc12)C(=O)Nc1ncc(Cc2ccccc2Cl)s1` the GI50 [1] was 1510 nM, the TGI [1] was 3110 nM and the GI50 [2] was 1080 nM. The TGI [2] was 2870 nM, the GI50 [3] was 1790 nM and the TGI [3] was 6020 nM. For the same molecule, the GI50 [4] was 823 nM, the TGI [4] was 2140 nM and the GI50 [5] was 2940 nM. The TGI [5] was 11600 nM, the GI50 [6] was 1430 nM and the TGI [6] was 3750 nM. For the same molecule, the GI50 [7] was 2510 nM, the TGI [7] was greater than 100000 nM and the GI50 [8] was 1140 nM. It also gave a TGI [8] of 2810 nM, a GI50 [9] of 2750 nM and a TGI [9] greater than 100000 nM. For the same molecule, the GI50 [10] was 2820 nM, the TGI [10] was 12700 nM and the GI50 [11] was 3230 nM. For the same molecule, the TGI [11] was greater than 100000 nM, the GI50 [12] was 1270 nM and the TGI [12] was 3890 nM. It also gave a GI50 [13] of 2830 nM, a TGI [13] greater than 100000 nM and a GI50 [14] greater than 100000 nM. It also gave a TGI [14] greater than 100000 nM, a GI50 [15] of 2520 nM and a TGI [15] of 10400 nM. It also gave a GI50 [16] of 1880 nM, a TGI [16] of 6000 nM and a GI50 [17] of 1930 nM. For the same molecule, the TGI [17] was 7080 nM, the GI50 [18] was 2660 nM and the TGI [18] was greater than 100000 nM. It also gave a GI50 [19] of 1930 nM, a TGI [19] of 5570 nM and a GI50 [20] of 3030 nM. For the same molecule, the TGI [20] was greater than 100000 nM, the GI50 [21] was 1890 nM and the TGI [21] was 6620 nM. The GI50 [22] was 4610 nM, the TGI [22] was 48800 nM and the GI50 [23] was 2520 nM. For the same molecule, the TGI [23] was 10400 nM, the GI50 [24] was 1780 nM and the TGI [24] was 4140 nM. For the same molecule, the GI50 [25] was 3010 nM, the TGI [25] was greater than 100000 nM and the GI50 [26] was 1930 nM. For the same molecule, the TGI [26] was 4790 nM, the GI50 [27] was 1790 nM and the TGI [27] was 4720 nM. It also gave a GI50 [28] of 2490 nM, a TGI [28] greater than 100000 nM and a GI50 [29] of 1700 nM. It also gave a TGI [29] of 5670 nM, a GI50 [30] of 1710 nM and a TGI [30] of 4080 nM. The GI50 [31] was 530 nM, the TGI [31] was 1990 nM and the GI50 [32] was 1800 nM. It also gave a TGI [32] of 6360 nM, a GI50 [33] of 2680 nM and a TGI [33] of 13300 nM. The GI50 [34] was 1560 nM, the TGI [34] was 3620 nM and the GI50 [35] was 393 nM. It also gave a TGI [35] of 1610 nM, a GI50 [36] of 1700 nM and a TGI [36] of 4590 nM. For the same molecule, the GI50 [37] was 1350 nM, the TGI [37] was 3130 nM and the GI50 [38] was 2010 nM. It also gave a TGI [38] of 7480 nM, a GI50 [39] of 3230 nM and a TGI [39] greater than 100000 nM. The GI50 [40] was 2270 nM, the TGI [40] was 6140 nM and the GI50 [41] was 2790 nM. For the same molecule, the TGI [41] was 23400 nM, the GI50 [42] was 2360 nM and the TGI [42] was 6870 nM. The GI50 [43] was 1680 nM, the TGI [43] was 3420 nM and the GI50 [44] was 2050 nM. For the same molecule, the TGI [44] was 4850 nM, the GI50 [45] was 2360 nM and the TGI [45] was 6740 nM. For the same molecule, the GI50 [46] was 2620 nM, the TGI [46] was 7080 nM and the GI50 [47] was 1800 nM. The TGI [47] was 4660 nM, the GI50 [48] was 1570 nM and the TGI [48] was 3880 nM. It also gave a GI50 [49] of 3070 nM, a TGI [49] of 17800 nM and a GI50 [50] of 1500 nM. It also gave a TGI [50] of 4540 nM, a GI50 [51] of 1110 nM and a TGI [51] of 3580 nM. It also gave a GI50 [52] of 1520 nM, a TGI [52] of 4200 nM and a GI50 [53] of 1690 nM. It also gave a TGI [53] of 4150 nM, a GI50 [54] of 1930 nM and a TGI [54] of 4200 nM. It also gave a GI50 [55] of 1360 nM, a TGI [55] of 2920 nM and a GI50 [56] of 3300 nM. The TGI [56] was greater than 100000 nM, the GI50 [57] was 1520 nM and the TGI [57] was 3160 nM. For the same molecule, the GI50 [58] was 1460 nM and the TGI [58] was 3180 nM.

Work on `COc1cc(C(=O)c2c(-c3ccccc3)oc3c(OC)cccc23)cc(OC)c1O` yielded a GI50 [1] of 630 nM, a TGI [1] of 14300 nM and a GI50 [2] of 378 nM. It also gave a TGI [2] of 3530 nM, a GI50 [3] of 751 nM and a TGI [3] greater than 100000 nM. The GI50 [4] was 664 nM, the TGI [4] was greater than 100000 nM and the GI50 [5] was 1190 nM. It also gave a TGI [5] of 7310 nM, a GI50 [6] of 404 nM and a TGI [6] of 26700 nM. It also gave a GI50 [7] of 414 nM, a TGI [7] greater than 100000 nM and a GI50 [8] of 2050 nM. The TGI [8] was 5230 nM, the GI50 [9] was 554 nM and the TGI [9] was greater than 100000 nM. It also gave a GI50 [10] of 876 nM, a TGI [10] greater than 100000 nM and a GI50 [11] of 1960 nM. It also gave a TGI [11] greater than 100000 nM, a GI50 [12] of 563 nM and a TGI [12] greater than 100000 nM. The GI50 [13] was 455 nM, the TGI [13] was greater than 100000 nM and the GI50 [14] was 284 nM. It also gave a TGI [14] of 1020 nM, a GI50 [15] of 641 nM and a TGI [15] greater than 100000 nM. It also gave a GI50 [16] of 276 nM, a TGI [16] of 2250 nM and a GI50 [17] of 405 nM. The GI50 [18] was 3150 nM, the TGI [18] was greater than 33700 nM and the GI50 [19] was 654 nM. For the same molecule, the TGI [19] was greater than 100000 nM, the GI50 [20] was 328 nM and the TGI [20] was greater than 100000 nM. It also gave a GI50 [21] of 450 nM, a TGI [21] greater than 51200 nM and a GI50 [22] of 608 nM. It also gave a TGI [22] greater than 100000 nM, a GI50 [23] of 351 nM and a TGI [23] greater than 100000 nM. The GI50 [24] was 509 nM, the TGI [24] was greater than 100000 nM and the GI50 [25] was 351 nM. For the same molecule, the TGI [25] was greater than 100000 nM, the GI50 [26] was 1500 nM and the TGI [26] was 16100 nM. It also gave a GI50 [27] of 162 nM, a TGI [27] of 459 nM and a GI50 [28] of 605 nM. It also gave a TGI [28] greater than 100000 nM, a GI50 [29] of 3100 nM and a TGI [29] greater than 100000 nM. The GI50 [30] was 864 nM, the TGI [30] was greater than 100000 nM and the GI50 [31] was 401 nM. It also gave a TGI [31] greater than 22100 nM, a GI50 [32] of 269 nM and a TGI [32] of 5180 nM. For the same molecule, the GI50 [33] was 454 nM, the TGI [33] was greater than 100000 nM and the GI50 [34] was 302 nM. For the same molecule, the TGI [34] was 1660 nM, the GI50 [35] was 2820 nM and the TGI [35] was greater than 100000 nM. It also gave a GI50 [36] of 3220 nM, a TGI [36] greater than 100000 nM and a GI50 [37] of 631 nM. The TGI [37] was greater than 100000 nM, the GI50 [38] was 450 nM and the TGI [38] was greater than 37200 nM. It also gave a GI50 [39] of 403 nM, a TGI [39] of 5750 nM and a GI50 [40] of 313 nM. For the same molecule, the TGI [40] was 2000 nM, the GI50 [41] was 1040 nM and the TGI [41] was greater than 100000 nM. It also gave a GI50 [42] of 569 nM, a TGI [42] greater than 21500 nM and a GI50 [43] of 311 nM. It also gave a TGI [43] of 2640 nM, a GI50 [44] of 2280 nM and a TGI [44] greater than 100000 nM. The GI50 [45] was 4090 nM, the TGI [45] was greater than 100000 nM and the GI50 [46] was 651 nM. It also gave a TGI [46] of 8620 nM, a GI50 [47] of 765 nM and a TGI [47] greater than 100000 nM. It also gave a GI50 [48] of 1460 nM, a TGI [48] greater than 100000 nM and a GI50 [49] of 1760 nM. For the same molecule, the TGI [49] was greater than 100000 nM, the GI50 [50] was 184 nM and the TGI [50] was 605 nM. The GI50 [51] was 339 nM, the TGI [51] was 53000 nM and the GI50 [52] was 454 nM. For the same molecule, the TGI [52] was greater than 100000 nM, the GI50 [53] was 1200 nM and the TGI [53] was greater than 100000 nM. For the same molecule, the GI50 [54] was 15000 nM, the TGI [54] was greater than 81900 nM and the GI50 [55] was 507 nM. For the same molecule, the TGI [55] was greater than 100000 nM, the GI50 [56] was 63500 nM and the TGI [56] was greater than 100000 nM. The GI50 [57] was 583 nM, the TGI [57] was greater than 100000 nM and the GI50 [58] was 648 nM. The TGI [58] was greater than 100000 nM.

Source: PubChem BioAssay (NCI)
